The values below come from patent US12599596B2, “Anti-tumor pharmaceutical composition based on immune checkpoint blockade and use thereof” (Shanghai Hui Tian Jin Ze Biotech Co., Ltd., priority 2023, dated 2026).

One experiment has as its system A549 lung cancer cells. Kind of experiment: EdU proliferation of tumor cells treated with CBD. Format: cell-based. Conditions: CBD 5, 10, 20 μM, 24 h. As to the method:
(§1) Different types of tumor cells (RKO colorectal cancer cells, H1975 lung cancer cells, and A549 lung cancer cells) in the logarithmic growth phase were respectively inoculated into a 96-well plate at an inoculum density of 5×10^3 per well, and then, the tumor cells were placed into an incubator at 37° C. and 5% CO2 for incubation for 24 h; a CBD mother solution (10 mM) was respectively diluted with culture medium to 5 μM, 10 μM, or 20 μM, and the culture medium in the 96-well plate was aspirated off, 100 μL of culture medium containing different concentrations of CBD was added to each well, a control well (0 μM CBD) was set, and the cells were continuously incubated for 24 h. After the culture was completed, the quantity of proliferating tumor cells was detected with an EdU kit (Beyotime, C0085S). Finally, a high-content imaging analysis system was used for photographing and the data were counted.

For another experiment, the system named is H1975 lung cancer cells. Kind of experiment: EdU proliferation of tumor cells treated with CBD. Format: cell-based. To be noted: CBD 5, 10, 20 μM, 24 h. As for the experimental part: as §1
In experiment [1] the test system is RKO colorectal cancer cells. Kind of experiment: EdU proliferation of tumor cells treated with CBD. Type of experiment: cell-based. Conditions: CBD 5, 10, 20 μM, 24 h. As to the method: as §1
Experiment [2] concerns PD-L1 on A549 lung cancer cell membrane. Kind of experiment: PD-L1 on cell membrane by flow cytometry. To be noted: concentration-dependent 5, 10, 20 μM, 24 h. Format: cell-based. As to the method: (§2) • (1) Different types of tumor cells (RKO, HCT116 and HT29 colon cancer cells, and A549, H1975 and H460 lung cancer cells) in the logarithmic growth phase were respectively inoculated on a 6-well plate at an inoculum density of 2.5×10^5 cells/well with 2 mL/well and then placed in a cell incubator overnight incubation. The culture mixture was removed, CBD at different concentrations (0 μM, 5 μM, 10 μM, and 20 μM) was added for treatment for 24 h, the supernatant was removed, and the cells were washed with PBS 2 times, digested with pancreatin, centrifuged at 300×g and 4° C. for 5 min, and collected. The cells were washed with precooled PBS 2 times, centrifuged at 300×g and 4° C. for 5 min, and collected. The cells were washed 2 times with precooled PBS, 100 μL of PBS was added to resuspend the cells, an anti-PD-L1-Alexa Fluor 647 antibody was added, the cells were incubated at room temperature for 30 min and centrifuged at 300×g and 4° C. for 5 min, 300 μL of PBS was added to resuspend the cells in a flow tube, and an Alexa Fluor 647 signal was detected from the sample using a flow cytometer (excitation/emission wavelength of 647 nm/666 nm). • (2) The colorectal cancer cells (RKO) in the logarithmic growth phase were inoculated into a 6-well plate at a density of 2.5×10^5 cells/well, with a 2 mL volume of the suspension in each well. The plate was placed into a cell incubator for incubation overnight, the culture mixture was removed, 20 μM CBD was added for 12 h, the supernatant was removed, PBS was used for washing 2 times, paraformaldehyde was added for fixing for 15 min, 5% BSA was added for fixing for 1 h, PBST was used for washing 2 times, a PD-L1 antibody was added overnight incubation, a red fluorescent antibody was added for incubation at room temperature for 1 h, DAPI was added for staining for 10 min, and finally, a laser scanning confocal microscope was used for photographing and analysis. 4. Research of CBD on Enhancing In Vitro Killing of Tumor Cells by T Cells
In general terms: Flow cytometry measures light scatter and fluorescence of single cells or particles in a stream.

The test system of experiment [3] is PD-L1 on H1975 lung cancer cell membrane. Kind of experiment: PD-L1 on cell membrane by flow cytometry. Type of experiment: cell-based. Conditions: concentration-dependent 5, 10, 20 μM, 24 h. As for the experimental part:
as §2

Experiment [4] concerns PD-L1 on H460 lung cancer cell membrane. Put plainly: PD-L1 on cell membrane by flow cytometry. Format: cell-based. To be noted: concentration-dependent 5, 10, 20 μM, 24 h. As to the method: as §2
The subject of experiment [5] is PD-L1 on HCT116 colon cancer cell membrane. Kind of experiment: PD-L1 on cell membrane by flow cytometry. Format: cell-based. Conditions: concentration-dependent 5, 10, 20 μM, 24 h. As for the experimental part:
as §2

Experiment [6] deals with PD-L1 on HT29 colon cancer cell membrane. Kind of experiment: PD-L1 on cell membrane by flow cytometry. Type of experiment: cell-based. Conditions: concentration-dependent 5, 10, 20 μM, 24 h. As to the method: as §2
For experiment [7], the system named is PD-L1 on RKO colon cancer cell membrane. Kind of experiment: PD-L1 on cell membrane by flow cytometry. Format: cell-based. Conditions: concentration-dependent 5, 10, 20 μM, 24 h. As to the method: as §2
The test system of the next experiment is RKO cells. Put plainly: In vitro killing of tumor cells by T cells (NK-92) with CBD, crystal violet. Format: cell-based. To be noted: CBD 5, 10, 20 μM 12 h, then NK-92 cells 1:500, 24 h; vs control. As for the experimental part: RKO cells in the logarithmic growth phase were inoculated into a 12-well plate at a density of 5×10^4 cells/mL and placed in a 5% CO2 incubator for growth adhering to a wall overnight. The supernatant was removed, CBD at different concentrations (0 μM, 5 μM, 10 μM, and 20 μM) was added, and the cells were coincubated for 12 h. NK-92 cells (T cells) were added at 1:500, the cells were cultured for 24 h, and a control group without the NK-92 cells was set at the same time. The supernatant was removed, PBS was used for washing 2 times, and 4% paraformaldehyde was added to fix the cells. Then, PBS was used for washing 2 times, crystal violet was added for dyeing for 30 min, and finally, redundant crystal violet was washed away with PBS, and photographing was performed to collect the data.

The test system of the next experiment is MC38 colon cancer cells. Put plainly: MC38 subcutaneous tumor model in C57BL/6 mice, Embodiment 5. Type of experiment: in vivo. Conditions: for Tumor volume: CBD 100 mg/kg, PAR 5 mg/kg, vitamin E 50 mg/kg. As to the method: MC38 colon cancer cells were inoculated into 6-week-old female C57BL/6 mice (1×10^6 cells/mouse) to establish a subcutaneous tumor model. After the tumor volume reached 50 mm^3, the mice were grouped and administered with the following pharmaceutical combinations: (1) control group (no drug administration), (2) anti-PD-1 ([…] per time) group, (3) vitamin E(α-tocopherol) (50 mg/kg) group, (4) CBD (100 mg/kg) group, (5) CBD (100 mg/kg)+vitamin E(α-tocopherol) (50 mg/kg) group, (6) PAR (5 mg/kg) group, (7) PAR (5 mg/kg)+vitamin E(α-tocopherol) (50 mg/kg) group, (8) CBD (100 mg/kg)+PAR (5 mg/kg) group, and (9) PAR (5 mg/kg)+CBD (100 mg/kg)+vitamin E(α-tocopherol) (50 mg/kg) group.
The tumor weight, tumor volume, and mouse body weight were monitored once every 2 days. The tumor volume was calculated as follows: tumor volume (mm^3)=0.5×(length)×(width)^2. The mice were sacrificed 14 days after drug administration, and the tumors were dissected.
The dissolving mode of the pharmaceutical composition was as follows: the pharmaceutical composition was dissolved in 10% DMSO+corn oil, the mice were gavaged with the pharmaceutical composition at 100 μl/mice, and the mice in the control group were injected with the same volume of the solvent.

SMILES strings stand for the structures.

Consider `C=C(C)[C@@H]1CCC(C)=C[C@H]1c1c(O)cc(CCCCC)cc1O` [CBD, cannabidiol], for which the “toxicity to tumor cells (proliferation, EdU fluorescence intensity)” value (in the experiment on A549 lung cancer cells; with H1975 lung cancer cells; in experiment [1]) was “not significantly toxic” each time. Also, the “expression of PD-L1 on the cell membrane (flow assay)” value in experiment [2], in [3], in [4], in [5], in [6] and in [7] was “decreased the expression of PD-L1” each time. The “viability of RKO cells in CBD+T cells coculture” value with RKO cells is listed as “significantly reduced the viability of RKO cells”. Moreover, the Tumor volume in the experiment on MC38 colon cancer cells (Day 0) stood at 0 mm^3; in the experiment on MC38 colon cancer cells (Day 4) it was 63.99 mm^3; with MC38 colon cancer cells (Day 6), 113.24 mm^3; with MC38 colon cancer cells (Day 8) it was 120.48 mm^3; in the experiment on MC38 colon cancer cells (Day 10), 176.51 mm^3; in the experiment on MC38 colon cancer cells (Day 12), 241.75 mm^3. For the same compound, the figures for the Tumor volume in the experiment with MC38 colon cancer cells (Day 14) and in the experiment on MC38 colon cancer cells (Day 16) were 314.83 mm^3 and 359.72 mm^3, respectively. In addition, the “therapeutic / tumor inhibition effect in words” value in the experiment with MC38 colon cancer cells (normal mice, Embodiment 5, comparison between groups) is reported as “equivalent therapeutic effects”.
